What follows are compounds tested against Mouse TAAR 1 (Mus musculus, UniProt Q923Y8) (assay: cAMP Biotrak EIA functional assay in HEK293 cells stably expressing mTAAR1). Details: not given.
Type: cell-based
Text: Stable cell lines: For the generation of stably transfected cell lines HEK cells were transfected with the pIRES-NEO2 expression vectors of the respective TAARs by using Lipofectamin 2000 transfection reagent and Optimem 1 reduced serum medium with Glutamax (Invitrogen Cat. # 51985-026) following the recommendations given in the Lipofectamine 2000 datasheet. After 24 hr post transfection cells were trypsinated and transferred into 90 mm tissue culture dishes (Nunc) at dilutions between 1:10-1:300 in culture medium supplemented with 1 mg/ml G418 which was renewed on a daily basis. […] Picking of clones was performed by detaching the entire clone from the culture dish using a 1 ml Gilson pipette, trypsinizing the clone in a 1.5 ml Eppendorf cup using Trypsin/EDTA (Invitrogen Cat. # 25300-062) and plating them into a 48 well dish, from where the cells were subsequently expanded by transferring them to increasing culture surface areas (48 well—12 well—60 mm etc.). Whenever cells were transferred to a new plate they were carefully trypsinized. As soon as single clones were selected, the concentration of G418 in the culture medium was reduced to 500 µg/ml.

Chain of Mouse TAAR 1 (Q923Y8 whole entry): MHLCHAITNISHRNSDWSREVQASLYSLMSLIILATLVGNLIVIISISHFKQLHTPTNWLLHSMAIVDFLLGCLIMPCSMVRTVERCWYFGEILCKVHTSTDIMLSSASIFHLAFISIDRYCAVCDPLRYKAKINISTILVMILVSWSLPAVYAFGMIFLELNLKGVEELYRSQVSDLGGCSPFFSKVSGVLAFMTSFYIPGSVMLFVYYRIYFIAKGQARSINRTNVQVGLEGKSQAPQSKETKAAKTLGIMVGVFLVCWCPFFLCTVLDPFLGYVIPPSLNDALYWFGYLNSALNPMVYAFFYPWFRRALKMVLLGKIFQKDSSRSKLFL

SMILES | EC50 [µM]
NCCc1c[nH]c2ccccc12 [TRY, tryptamine] | 1.99
NCCc1c[nH]c2ccc(O)cc12 [Serotonin, 5-HT, Serotonin] | > 50
NCCc1ccccc1 [β-PEA, β-phenylethylamine] | 0.66

Same assay, conditions: maximal response as percentage of the maximal cAMP levels induced by p-TYR; HEK293 cells stably expressing mTAAR1

SMILES | Max (96) [percentage]
NCC(O)c1ccc(O)cc1 (stereo not drawn) [OCT, octopamine] | 100

Same assay, conditions: read-out: EC50

SMILES | EC50 [µM]
NC[C@H](O)c1ccc(O)c(O)c1 [Norepinephrine, norepinephrine] | > 50
NCCc1c[nH]cn1 [Histamine, histamine] | > 50
NCC(O)c1ccc(O)cc1 (stereo not drawn) [OCT, octopamine] | 19.7
NCCc1ccc(O)c(O)c1 [Dopamine, dopamine] | 11.8
CNCCc1ccccc1 [N-methyl-β-PEA] | 0.15

— patent US20060008880A1, “Mouse trace amine associated receptors and polypeptides” (priority 2004, published 2006)
